Source: ChEMBL document CHEMBL1148520, “5-(Dimethoxymethyl)-2'-deoxyuridine: a novel gem diether nucleoside with anti-orthopoxvirus activity” (J Med Chem, 2006)

System: Vaccinia virus
Assay: Antiviral activity against vaccinia virus Copenhagen measured as cytopathogenicity in HFF cells
Type: functional, organism-based
Settings: Orthopoxvirus vaccinia

Work on CCOC(OCC)c1cn(C2C[C@H](OC(C)=O)[C@@H](COC(C)=O)O2)c(=O)[nH]c1=O (some centres not stated) yielded an EC50 of 38 µM.
COC(OC)c1cnc(O)nc1O was tested, and the EC50 was over 300 µM.
In the case of CC(=O)OC[C@H]1OC(n2cc(C3OCCCO3)c(=O)[nH]c2=O)C[C@@H]1OC(C)=O (some centres not stated), the EC50 is reported as over 300 µM.
Work on CC(=O)OC[C@H]1OC(n2cc(C=O)c(=O)[nH]c2=O)C[C@@H]1OC(C)=O (some centres not stated) yielded an EC50 of over 300 µM.
COC(OC)c1cn(C2C[C@H](OC(C)=O)[C@@H](COC(C)=O)O2)c(=O)[nH]c1=O (some centres not stated) was tested, and the EC50 was 296 µM.
Work on COC(OC)c1cn(C2C[C@H](O)[C@@H](CO)O2)c(=O)[nH]c1=O (some centres not stated) yielded an EC50 of 8.4 µM.
For O=Cc1cn([C@H]2C[C@H](O)[C@@H](CO)O2)c(=O)[nH]c1=O, the EC50 was over 300 µM.
Compound CC(=O)OC[C@H]1OC(n2cc(C3OCCO3)c(=O)[nH]c2=O)C[C@@H]1OC(C)=O (some centres not stated) has an EC50 of over 300 µM.
CCOC(OCC)c1cn(C2C[C@H](O)[C@@H](CO)O2)c(=O)[nH]c1=O (some centres not stated) showed an EC50 of over 60 µM.
O=c1[nH]c(=O)n(C2CC(O)[C@@H](CO)O2)cc1C1OCCO1 (single isomer, unassigned) showed an EC50 of over 300 µM.
O=c1[nH]c(=O)n(C2CC(O)[C@@H](CO)O2)cc1C1OCCCO1 (single isomer, unassigned) was tested, and the EC50 was over 300 µM.
For Nc1ccn(C[C@@H](CO)OCP(=O)(O)O)c(=O)n1 [CIDOFOVIR], the EC50 was 6.9 µM.
